Measured values as given in paper PMC6934184, “Selective DNA-PKcs inhibition extends the therapeutic index of localized radiotherapy and chemotherapy” (The Journal of Clinical Investigation, 2019).

Target: T1, CAMK2G (CaMKII gamma) (Homo sapiens, UniProt Q13555)
T1 construct: purchased Thermo Fisher Scientific (Life Technologies) SelectScreen
Test: SelectScreen LanthaScreen
Format: binding
Conditions: read-out: % displacement
Summary of the method: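 NU5455 was profiled across the SelectScreen Broad panel of kinase activity and binding assays. Z'LYTE reactions such as CSF1R ran at apparent Km ATP, while the Adapta CAMK1 assay used ATP listed as 10. Values are given as percent.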

T1 sequence (Q13555 whole entry): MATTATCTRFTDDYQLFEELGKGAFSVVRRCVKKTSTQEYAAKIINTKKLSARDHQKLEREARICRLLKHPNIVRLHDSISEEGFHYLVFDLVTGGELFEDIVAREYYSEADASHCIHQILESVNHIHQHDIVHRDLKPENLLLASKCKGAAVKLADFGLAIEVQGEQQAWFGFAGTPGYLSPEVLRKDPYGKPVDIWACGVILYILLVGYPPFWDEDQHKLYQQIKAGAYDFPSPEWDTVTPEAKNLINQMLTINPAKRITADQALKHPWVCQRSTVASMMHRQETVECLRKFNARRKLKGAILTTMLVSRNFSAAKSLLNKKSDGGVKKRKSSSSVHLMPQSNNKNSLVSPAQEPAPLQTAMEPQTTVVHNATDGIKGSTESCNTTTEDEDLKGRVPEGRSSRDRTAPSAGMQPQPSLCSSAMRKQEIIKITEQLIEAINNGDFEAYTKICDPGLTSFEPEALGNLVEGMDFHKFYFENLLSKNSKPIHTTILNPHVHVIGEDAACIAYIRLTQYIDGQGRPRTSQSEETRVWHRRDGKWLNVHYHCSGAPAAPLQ

With `CN(C(=O)CN1CCOCC1)c1ccc2sc3c(-c4cccc5c(=O)cc(N6CC7CCC(C6)O7)oc45)cccc3c2c1` [NU5455] as the compound, how does the inhibition at 1 µM read?
Its inhibition at 1 µM is -0.8%.
